Measurements published in patent US11352340B2, “Pyridine and pyridimine compounds as PI3K-gamma inhibitors” (Incyte Corporation, priority 2016, dated 2022).
Counter-ions that a name gives are not always drawn. Like-named read-outs stand apart in the source and are kept apart here.

What was measured:
[1] = target: PI3Kδ (p110δ/p85α) Recombinant Human Protein (Homo sapiens (Human), UniProt O00329); test: PI3Kδ Scintillation Proximity Assay; assay type: biochemical; settings: read-out: PI3K-delta SPA IC50
Chain of PI3Kδ (p110δ/p85α) Recombinant Human Protein (O00329 whole entry): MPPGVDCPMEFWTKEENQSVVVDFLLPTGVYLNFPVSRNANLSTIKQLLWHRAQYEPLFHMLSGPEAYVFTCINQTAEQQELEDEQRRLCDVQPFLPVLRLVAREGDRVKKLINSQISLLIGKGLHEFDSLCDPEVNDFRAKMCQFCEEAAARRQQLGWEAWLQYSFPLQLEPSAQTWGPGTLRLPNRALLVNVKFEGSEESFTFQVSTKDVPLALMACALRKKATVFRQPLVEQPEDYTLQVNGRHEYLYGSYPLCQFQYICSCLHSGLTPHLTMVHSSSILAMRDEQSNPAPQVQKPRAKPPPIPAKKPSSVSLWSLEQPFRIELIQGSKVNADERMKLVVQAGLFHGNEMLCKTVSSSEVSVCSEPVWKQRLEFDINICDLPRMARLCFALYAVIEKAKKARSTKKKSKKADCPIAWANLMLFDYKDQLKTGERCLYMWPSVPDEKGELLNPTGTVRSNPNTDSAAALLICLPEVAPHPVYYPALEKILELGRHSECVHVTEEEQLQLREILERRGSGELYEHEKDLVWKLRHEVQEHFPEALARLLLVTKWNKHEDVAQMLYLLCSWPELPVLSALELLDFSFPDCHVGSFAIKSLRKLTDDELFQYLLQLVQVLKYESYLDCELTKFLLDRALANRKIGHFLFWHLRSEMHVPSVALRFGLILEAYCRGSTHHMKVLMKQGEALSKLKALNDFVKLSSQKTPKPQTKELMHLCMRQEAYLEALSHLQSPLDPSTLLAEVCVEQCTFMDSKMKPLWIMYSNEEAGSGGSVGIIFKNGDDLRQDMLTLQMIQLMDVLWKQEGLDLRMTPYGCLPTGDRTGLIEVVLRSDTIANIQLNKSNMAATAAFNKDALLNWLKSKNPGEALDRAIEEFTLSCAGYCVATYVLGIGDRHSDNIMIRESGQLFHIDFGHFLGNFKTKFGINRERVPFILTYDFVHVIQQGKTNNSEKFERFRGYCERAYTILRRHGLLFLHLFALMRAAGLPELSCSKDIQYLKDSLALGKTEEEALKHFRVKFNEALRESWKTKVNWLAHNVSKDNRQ
Chain of PI3Kδ (p110δ/p85α) Recombinant Human Protein (P27986 whole entry partner): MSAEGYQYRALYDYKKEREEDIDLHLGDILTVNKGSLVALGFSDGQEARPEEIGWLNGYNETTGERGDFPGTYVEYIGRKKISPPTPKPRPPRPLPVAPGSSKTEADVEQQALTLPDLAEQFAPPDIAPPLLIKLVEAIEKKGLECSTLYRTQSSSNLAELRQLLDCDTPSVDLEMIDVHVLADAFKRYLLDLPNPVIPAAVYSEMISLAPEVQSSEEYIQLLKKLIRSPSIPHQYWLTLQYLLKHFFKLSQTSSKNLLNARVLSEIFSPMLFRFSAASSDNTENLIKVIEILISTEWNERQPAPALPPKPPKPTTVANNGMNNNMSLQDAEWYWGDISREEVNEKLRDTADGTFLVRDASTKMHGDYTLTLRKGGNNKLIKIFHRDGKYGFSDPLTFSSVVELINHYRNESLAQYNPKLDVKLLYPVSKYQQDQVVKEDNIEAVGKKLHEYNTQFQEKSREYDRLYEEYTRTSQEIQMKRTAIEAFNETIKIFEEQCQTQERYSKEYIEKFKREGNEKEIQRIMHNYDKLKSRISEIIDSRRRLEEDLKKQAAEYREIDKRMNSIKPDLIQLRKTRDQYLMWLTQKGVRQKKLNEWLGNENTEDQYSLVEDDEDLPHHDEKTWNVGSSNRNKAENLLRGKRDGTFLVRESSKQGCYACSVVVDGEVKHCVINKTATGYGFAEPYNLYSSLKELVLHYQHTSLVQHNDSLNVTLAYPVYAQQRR
In short: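 Kinase reaction run at room temperature in 20 mM MOPS pH 6.7, 10 mM MgCl2, 5 mM DTT, 0.03% CHAPS with 20 μM PIP2, 2 μM ATP plus [γ-33P]ATP, 3.4 nM enzyme, 2% DMSO; 120 min. Quenched with WGA SPA beads/EDTA, counted by scintillation; IC50 from % solvent-control activity vs log concentration.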

[2] = tested on: Phosphorylated Ribosomal Protein S6 (RPS6) in THP-1 cells; test: THP-1 RPS6 ELISA Assay; assay type: cell-based, Human; settings: MCP-1 stimulated, phospho-RPS6 ELISA, read-out: THP p-RPS6 ELISA IC50
In short: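 Serum-starved THP-1 cells (2×10^5/well, RPMI) preincubated with compound 2 h at 37° C, then stimulated with 10 nM MCP-1 for 15 min. Lysates assayed by phospho-RPS6 ELISA, absorbance 450 nm (540 nm correction); IC50 from percent inhibition versus log concentration.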

[3] = target: PI3Kγ (p110γ) Recombinant Human Protein (Homo sapiens (Human), UniProt P48736); test: PI3K-γ Scintillation Proximity Assay; assay type: biochemical; settings: read-out: PI3K-gamma SPA IC50
Chain of PI3Kγ (p110γ) Recombinant Human Protein (P48736 whole entry): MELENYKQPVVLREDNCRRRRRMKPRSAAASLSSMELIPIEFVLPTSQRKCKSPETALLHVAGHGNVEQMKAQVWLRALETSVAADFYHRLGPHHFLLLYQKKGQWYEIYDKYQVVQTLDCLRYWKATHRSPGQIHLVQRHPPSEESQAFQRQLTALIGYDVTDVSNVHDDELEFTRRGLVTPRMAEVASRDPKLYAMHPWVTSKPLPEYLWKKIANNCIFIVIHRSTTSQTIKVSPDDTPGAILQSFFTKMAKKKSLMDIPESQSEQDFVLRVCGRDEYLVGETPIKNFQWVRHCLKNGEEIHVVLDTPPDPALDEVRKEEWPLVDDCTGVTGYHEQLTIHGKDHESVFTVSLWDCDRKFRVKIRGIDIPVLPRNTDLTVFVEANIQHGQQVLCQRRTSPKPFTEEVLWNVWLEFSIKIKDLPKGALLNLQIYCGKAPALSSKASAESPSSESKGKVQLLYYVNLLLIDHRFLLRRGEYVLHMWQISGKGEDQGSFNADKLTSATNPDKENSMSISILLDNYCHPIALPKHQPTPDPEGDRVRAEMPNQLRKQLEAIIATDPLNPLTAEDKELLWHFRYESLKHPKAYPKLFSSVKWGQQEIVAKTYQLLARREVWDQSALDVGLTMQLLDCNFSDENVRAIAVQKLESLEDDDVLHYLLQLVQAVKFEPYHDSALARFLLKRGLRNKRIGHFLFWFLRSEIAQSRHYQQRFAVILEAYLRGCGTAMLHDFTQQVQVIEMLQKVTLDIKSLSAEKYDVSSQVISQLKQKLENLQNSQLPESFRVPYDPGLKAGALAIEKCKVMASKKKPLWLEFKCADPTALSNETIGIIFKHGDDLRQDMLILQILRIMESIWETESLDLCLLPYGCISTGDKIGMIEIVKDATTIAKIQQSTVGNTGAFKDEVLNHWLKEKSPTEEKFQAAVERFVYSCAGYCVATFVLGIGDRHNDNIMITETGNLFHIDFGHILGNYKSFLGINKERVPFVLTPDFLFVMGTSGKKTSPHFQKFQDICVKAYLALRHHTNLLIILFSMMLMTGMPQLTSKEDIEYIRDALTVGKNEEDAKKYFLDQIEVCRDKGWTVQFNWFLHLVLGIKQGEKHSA
In short: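 Recombinant human p110γ (13 nM) with 20 μM PIP2 and 2 μM ATP plus 0.5 μCi [γ-33P]ATP in 20 mM MOPS pH 6.7, 10 mM MgCl2, 5 mM DTT, 0.03% CHAPS, 2% DMSO, 120 min at room temperature. Product captured on WGA SPA beads and counted; IC50 fitted from % of solvent control versus log concentration.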

| Compound | IC50 [1] | IC50 ([2]; Homo sapiens) | IC50 [3] | IC50 [2] |
| --- | --- | --- | --- | --- |
| Cc1nc(-c2cc(C3=CCCN(S(=O)(=O)c4ccc(Cl)cc4)C3)ccn2)[nH]c1C [Example 221, 4-(1-(4-Chlorophenylsulfonyl)-1,2,5,6-tetrahydropyridin-3-yl)-2-(4,5-dimethyl-1H-imidazol-2-yl)pyridine trifluoroacetate salt] | ≤ 500 nM | > 5000 nM | ≤ 100 nM |  |
| Cc1nc(-c2cc(-c3cncc(N4CC[C@@H](O)C4)c3)ccn2)[nH]c1C [Example 231, (3R)-1-[2′-(4,5-Dimethyl-1H-imidazol-2-yl)-3,4′-bipyridin-5-yl]pyrrolidin-3-ol] | ≤ 100 nM | 300 to 1000 nM | ≤ 50 nM |  |
| Cc1nc(-c2cc(-c3cncc(N4CC[C@H](O)C4)c3)ccn2)[nH]c1C [Example 232, (3S)-1-[2′-(4,5-Dimethyl-1H-imidazol-2-yl)-3,4′-bipyridin-5-yl]pyrrolidin-3-ol] | ≤ 500 nM | 300 to 1000 nM | ≤ 100 nM |  |
| Cc1nc(-c2cc(-c3cncc(Nc4ccccc4)c3)ccn2)[nH]c1C [Example 233, 2′-(4,5-Dimethyl-1H-imidazol-2-yl)-N-phenyl-3,4′-bipyridin-5-amine] | ≤ 500 nM | 1000 to 5000 nM | ≤ 50 nM |  |
| Cc1nc(-c2cc(-c3cncc(C4=CCN(S(C)(=O)=O)C4)c3)ccn2)[nH]c1C [Example 237, 2′-(4,5-Dimethyl-1H-imidazol-2-yl)-5-[1-(methylsulfonyl)-2,5-dihydro-1H-pyrrol-3-yl]-3,4′-bipyridine] | ≤ 50 nM | ≤ 300 nM | ≤ 50 nM |  |
| CCOC(=O)c1nc(-c2cc(-c3cncc(S(C)(=O)=O)c3)ccn2)[nH]c1C [Example 241, Ethyl 5-methyl-2-[5-(methylsulfonyl)-3,4′-bipyridin-2′-yl]-1H-imidazole-4-carboxylate] | ≤ 50 nM | 300 to 1000 nM | ≤ 100 nM |  |
| Cc1[nH]c(-c2cc(-c3cncc(S(C)(=O)=O)c3)ccn2)nc1C(=O)NC1CCCC1 [Example 243, N-Cyclopentyl-5-methyl-2-[5-(methylsulfonyl)-3,4′-bipyridin-2′-yl]-1H-imidazole-4-carboxamide] | ≤ 50 nM | ≤ 300 nM | ≤ 50 nM |  |
| Cc1[nH]c(-c2cc(-c3cncc(S(C)(=O)=O)c3)ccn2)nc1C(=O)N1CCOCC1 [Example 244, 2′-[5-Methyl-4-(morpholin-4-ylcarbony1)-1H-imidazol-2-yl]-5-(methylsulfony1)-3,4′-bipyridine] | ≤ 50 nM |  | ≤ 100 nM | > 5000 nM |
| Cc1[nH]c(-c2cc(-c3cncc(S(C)(=O)=O)c3)ccn2)nc1C(=O)N1CC[C@@H](O)C1 [Example 245] | ≤ 50 nM |  | ≤ 50 nM | > 5000 nM |
| Cc1[nH]c(-c2cc(-c3cncc(S(C)(=O)=O)c3)ccn2)nc1C(=O)N1CC(O)C1 [Example 247, l-({5-Methyl-2-[5-(methylsulfonyl)-3,4′-bipyridin-2′-yl]-1H-imidazol-4-yl}carbonyl)azetidin-3-ol] | ≤ 50 nM |  | ≤ 50 nM | > 5000 nM |
| Cc1[nH]c(-c2cc(-c3cncc(S(C)(=O)=O)c3)ccn2)nc1C(=O)N1CC(C#N)C1 [Example 248, 1-({5-Methyl-2-[5-(methylsulfonyl)-3,4′-bipyridin-2′-yl]-lH-imidazol-4-yl}carbonyl)azetidine-3-carbonitrile] | ≤ 50 nM |  | ≤ 50 nM | 1000 to 5000 nM |
| Cc1[nH]c(-c2cc(-c3cncc(S(C)(=O)=O)c3)ccn2)nc1C(N)=O [Example 249, 5-Methyl-2-[5-(methylsulfonyl)-3,4′-bipyridin-2′-yl]-1H-imidazole-4-carboxamide trifluoroacetate salt] | ≤ 50 nM | 1000 to 5000 nM | ≤ 50 nM |  |
| CNC(=O)c1nc(-c2cc(-c3cncc(S(C)(=O)=O)c3)ccn2)[nH]c1C [Example 250, N,5-Dimethyl-2-[5-(methylsulfonyl)-3,4′-bipyridin-2′-yl]-lH-imidazole-4-carboxamide trifluoroacetate salt] | ≤ 50 nM |  | ≤ 50 nM | 300 to 1000 nM |
| CCNC(=O)c1nc(-c2cc(-c3cncc(S(C)(=O)=O)c3)ccn2)[nH]c1C [Example 252, N-Ethyl-5-methyl-2-[5-(methylsulfonyl)-3,4′-bipyridin-2′-yl]-1H-imidazole-4-carboxamide trifluoroacetate salt] | ≤ 50 nM | ≤ 300 nM | ≤ 50 nM |  |
| Cc1[nH]c(-c2cc(-c3cncc(S(C)(=O)=O)c3)ccn2)nc1C(=O)NC(C)C [Example 253, N-Isopropyl-5-methyl-2-[5-(methylsulfonyl)-3,4′-bipyridin-2′-yl]-1H-imidazole-4-carboxamide trifluoroacetate salt] | ≤ 50 nM | ≤ 300 nM | ≤ 50 nM |  |
| Cc1[nH]c(-c2cc(-c3cncc(S(C)(=O)=O)c3)ccn2)nc1C(=O)NC1CCOCC1 [Example 254, 5-Methyl-2-[5-(methylsulfonyl)-3,4′-bipyridin-2′-yl]-N-(tetrahydro-2H-pyran-4-yl)-1H-imidazole-4-carboxamide trifluoroacetate salt] | ≤ 50 nM | ≤ 300 nM | ≤ 50 nM |  |
| Cc1[nH]c(-c2cc(-c3cncc(S(C)(=O)=O)c3)ccn2)nc1C(=O)N[C@H]1CCOC1 [Example 255, 5-Methyl-2-[5-(methylsulfonyl)-3,4′-bipyridin-2′-yl]-N-[(3,S)-tetrahydrofuran-3-yl]-lH-imidazole-4-carboxamide trifluoroacetate salt] | ≤ 50 nM |  | ≤ 50 nM | 300 to 1000 nM |
| Cc1[nH]c(-c2cc(-c3cncc(S(C)(=O)=O)c3)ccn2)nc1C(=O)N[C@@H]1CCOC1 [Example 256, 5-Methyl-2-[5-(methylsulfonyl)-3,4′-bipyridin-2′-yl]-N-[(3R)-tetrahydrofuran-3-yl]-1H-imidazole-4-carboxamide trifluoroacetate salt] | ≤ 50 nM | 1000 to 5000 nM | ≤ 50 nM |  |

More lines, main results first:

| IC50 [1] | IC50 ([2]; Homo sapiens) | IC50 [3] | Compound | IC50 [2] |
| --- | --- | --- | --- | --- |
| ≤ 50 nM | ≤ 300 nM | ≤ 50 nM | Cc1[nH]c(-c2cc(-c3cncc(N4CCOCC4)c3)ccn2)nc1C(=O)NC1CCCC1 [Example 258, N-Cyclopentyl-5-methyl-2-(5-morpholin-4-yl-3,4′-bipyridin-2′-yl)-1H-imidazole-4-carboxamide] |  |
| ≤ 50 nM | 300 to 1000 nM | ≤ 50 nM | Cc1[nH]c(-c2cc(-c3cncc(N4CCOCC4)c3)ccn2)nc1C(=O)N1CC(C(F)(F)F)C1 [Example 262, 2′-(5-Methyl-4-{[3-(trifluoromethyl)azetidin-1-yl]carbonyl}-1H-imidazol-2-yl)-5-morpholin-4-yl-3,4′-bipyridine] |  |
| ≤ 50 nM | 1000 to 5000 nM | ≤ 100 nM | Cc1[nH]c(-c2cc(-c3cncc(N4CCOCC4)c3)ccn2)nc1C(=O)N1CC(NC(=O)OC(C)(C)C)C1 [Example 264, tert-Butyl (1-{[5-methyl-2-(5-morpholin-4-yl-3,4′-bipyridin-2′-yl)-1H-imidazol-4-yl]carbonyl}azetidin-3-yl)carbamate] |  |
| ≤ 50 nM | 300 to 1000 nM | ≤ 50 nM | Cc1[nH]c(-c2cc(-c3cncc(N4CCOCC4)c3)ccn2)nc1C(=O)NC1CCCCC1 [Example 265, N-Cyclohexyl-5-methyl-2-(5-morpholin-4-yl-3,4′-bipyridin-2′-yl)-1H-imidazole-4-carboxamide] |  |
| ≤ 50 nM | ≤ 300 nM | ≤ 50 nM | Cc1[nH]c(-c2cc(-c3cncc(N4CCOCC4)c3)ccn2)nc1C(=O)NC(C)(C)C [Example 266, N-(tert-Butyl)-5-methyl-2-(5-morpholin-4-yl-3,4′-bipyridin-2′-yl)-1H-imidazole-4-carboxamide] |  |
| ≤ 50 nM | 1000 to 5000 nM | ≤ 50 nM | Cc1[nH]c(-c2cc(-c3cncc(N4CCOCC4)c3)ccn2)nc1C(=O)N1CC(C)(C)C1 [Example 267, 2′-{4-[(3,3-Dimethylazetidin-1-yl)carbonyl]-5-methyl-1H-imidazol-2-yl}-5-morpholin-4-yl-3,4′-bipyridine] |  |
| ≤ 50 nM | 300 to 1000 nM | ≤ 50 nM | Cc1[nH]c(-c2cc(-c3cncc(N4CCOCC4)c3)ccn2)nc1C(=O)NC(C)C [Example 268, N-Isopropyl-5-methyl-2-(5-morpholin-4-yl-3,4′-bipyridin-2′-yl)-1H-imidazole-4-carboxamide trifluoroacetate salt] |  |
| ≤ 50 nM | 300 to 1000 nM | ≤ 50 nM | Cc1[nH]c(-c2cc(-c3cncc(N4CCOCC4)c3)ccn2)nc1C(=O)NC1CCOCC1 [Example 269, 5-Methyl-2-(5-morpholin-4-yl-3,4′-bipyridin-2′-yl)-N-(tetrahydro-2H-pyran-4-yl)-1H-imidazole-4-carboxamide trifluoroacetate salt] |  |
| ≤ 50 nM | 300 to 1000 nM | ≤ 50 nM | Cc1[nH]c(-c2cc(-c3cncc(N4CCOCC4)c3)ccn2)nc1C(=O)N[C@@H]1CCOC1 [Example 270, 5-Methyl-2-(5-morpholin-4-yl-3,4′-bipyridin-2′-yl)-N-[(3R)-tetrahydrofuran-3-yl]-1H-imidazole-4-carboxamide trifluoroacetate salt] |  |
